Experiments:
[1] = Evaluation of solubility (visual appearance of stored solutions in aliphatic hydrocarbon solvents); assay type: physicochemical; settings: for solubility room temperature, 3 days: stored at room temperature for 3 days
Excerpt: The symbols used to evaluate solubility in the Tables mean the following: • ◯: homogeneous transparent solution state • Δ: cloudy state • x: two-phase separation or crystallization

[2] = Evaluation of polymerization performance (ethylene/1-octene solution polymerization with CGC catalyst, compound as cocatalyst); settings: CGC 3 μmol, catalyst:cocatalyst=1:1, TIBA 3000 μmol, 40 ml solvent (MCH), 1-octene 1 mL, ethylene 8 atm, 50° C., 6 min
Description: A general polymerization method using the compound of the present invention (compound (1-2)) as a cocatalyst is shown below.
Into 100 mL autoclave in a glove box were added 1-octene, triisobutylaluminum (TIBA, 1.00 M hexane solution) and a solvent (methylcyclohexane (MCH)) to prepare a comonomer solution. A polymerization catalyst (dimethylsilylene(tert-butylamide)-(tetramethylcyclopentadienyl)-titanium (IV)-dichloride (CGC)), triisobutylaluminum (1.00 M hexane solution), and a solvent were added to prepare a catalyst solution at a predetermined concentration, and the solution was transferred to a Schlenk tube. Compound (1-2) (cocatalyst) was dissolved in a solvent, and a cocatalyst solution at a predetermined concentration was prepared and transferred to the Schlenk tube. The comonomer solution, the catalyst solution, and the cocatalyst solution were mixed, and prepared such that the total amount of the solvent and the total amount of triisobutylaluminum would be constant. The inside of the autoclave was purged with ethylene gas, the catalyst solution and the cocatalyst solution were successively added to the autoclave, and the ethylene gas pressure was immediately adjusted to a predetermined pressure, and the mixture was stirred at 50° C. for 6 min. […]

[3] = 0.6 wt % (≈3 mM) borate compound/n-hexane solution, visual observation
[4] = 50 wt % borate compound/methylcyclohexane solution, visual observation
[5] = 50 wt % borate compound/methylcyclohexane solution, stored at −15° C. for 3 days, visual observation

| Structure (SMILES) | solubility room temperature, 3 days [1, 3] | solubility room temperature, 3 days [1, 4] | solubility −15° C., 3 days [1, 5] | solubility at 3 days ([1]; organic solvent or mixture, 0.6 wt % (≈3 mM) borate compound/n-hexane solution, stored at −15° C. for 3 days, visual observation) [µM] | ethylene-octene copolymer obtained [2] [mg] | solubility −15° C., 3 days ([1]; 0.6 wt % (≈3 mM) borate compound/n-hexane solution, stored at −15° C. for 3 days, visual observation) | solubility in aliphatic hydrocarbon solvents at low temperatures, in words ([1]; compared to Comparative Examples 1 to 5, summary of Tables 1 and 2) |
| --- | --- | --- | --- | --- | --- | --- | --- |
| CCCCCCCCCCCCCCCCN(CCCCCCCCCCCCCCCC)c1ccccc1 [Comparative Example 1, N,N-Dihexadecylanilinium tetrakis(pentafluorophenyl) borate] | ∘ | ∘ | ∘ | < 3000 | – | – | – |
| CCCCCCCCCCCCCCCCCC[NH+](CCCCCCCCCCCCCCCCCC)c1ccc(CCCC)cc1.Fc1c(F)c(F)c([B-](c2c(F)c(F)c(F)c(F)c2F)(c2c(F)c(F)c(F)c(F)c2F)c2c(F)c(F)c(F)c(F)c2F)c(F)c1F [Example 2, N,N-Dioctadecyl-4-butylanilinium tetrakis(pentafluorophenyl) borate] | ∘ | ∘ | ∘ | – | 47.3 | ∘ | remarkably high solubility |
